Assay results from paper PMC12658820, “Development of Tunable Rose Bengal-Based nanoGUMBOS as Potential Selective Chemotherapeutic Agents” (ACS Omega, 2025).
Values joined by “and” are separate entries in the source; they are usually repeats but may differ in a detail not shown here. Identical values can stand only once. “Also recorded” adds a separate entry of the source. Counter-ions that a name gives are not always drawn.

Columns and labels:
[1] = Octanol/water partition experiments; format: physicochemical; details: stirred 24 h, absorbance at 562 nm, triplicate
[2] = Dynamic light scattering (DLS) nanoparticle size; format: physicochemical; details: 10 μM solutions of nanoGUMBOS
Experimental: (§1) The series of RB-based nanoGUMBOS was synthesized by a simple reprecipitation method to form nanoparticles from a 10 mM RB-based GUMBOS stock solution in MeOH or DMSO. Briefly, a small aliquot of a MeOH/DMSO solution of each RB-based GUMBOS was rapidly introduced into a large volume of an aqueous cell medium (Dulbecco’s modified Eagle’s medium (DMEM), containing 10% fetal bovine serum) or water under ultrasonication. In this condition, a supersaturation of the hydrophobic RB-based GUMBOS is achieved in the aqueous system, leading to the precipitation of the RB-based GUMBOS into small particles. After that, the solution was placed on the bench and allowed to rest for a period of 15 min to allow the nucleation of the nanoparticles.
(§2) Once the incubation period concluded, DLS and S-TEM instruments were used to characterize the nanoGUMBOS. Dynamic light scattering was performed using a Malvern Zetasizer. […] Each compound was scanned at 25 °C for 10 s each scan, and the system automatically adjusted the scans needed per run. S-TEM was employed via the use of a JEOL-SEM 7600F instrument, with a vacuum pressure of 1.9E^–4 Pa, electron beam at 30,000 V, and amplified current of […], with each micrograph content being produced at 8000× magnification. ImageJ software was used for the measurements of electron micrograph images. The polydispersity index from the TEM micrograph was calculated using eq . 1 PDI=sizedeviation(σ)/sizemean(μ)

S-TEM nanoparticle size = format: physicochemical; details: for TEM mean size / TEM PDI: 10 μM solutions of nanoGUMBOS; for TEM PDI: size deviation/size mean
Experimental: as §1, §2

DLS ζ-potential = format: physicochemical; details: nanoGUMBOS, triplicate
Experimental: Ultraviolet–visible (UV–vis) absorption was measured between 560 and 562 nm using a Jasco V-750 spectrophotometer for the characterization of GUMBOS and nanoGUMBOS experiments. Fluorescence excitation and emission spectra were recorded using a Jasco FP-8500 fluorescence spectrophotometer. Fourier transform infrared (FT-IR) spectra were collected using a Thermo Scientific Nicolet iS20 instrument with 256 scans and a resolution of 4 cm^–1. A JEOL JSM 7600F scanning electron microscope (SEM) was employed for surface imaging and analysis of samples. A Mettler Toledo pH meter was used for measuring the pH of the various solutions. Ultrafast liquid chromatography (UFLC) coupled with a SHIMADZU electrospray ionization-mass spectrometer (ESI-MS) system was used for the characterization of the synthesized GUMBOS. ^1H and ^13C NMR spectra were collected using a JEOL ECZL-400S NMR spectrometer (400 MHz, CCRL05) equipped with a 24-position autosample changer and autotune probe. Dynamic light scattering (DLS) and ζ-potential measurements were conducted by using a Malvern Zetasizer Nano-Series system. The blood–brain barrier permeability was assessed by using a Bioassay Systems Parallel Artificial Membrane Permeability Assay-BBB Kit. Confocal fluorescence imaging was performed using a Zeiss confocal laser scanning microscope, LSM-710, equipped with an inverted Axio Observer Z1 platform and Airyscan detection. Triple-deionized water was purified by using a Millipore Milli-Q system.
as §2, with “ImageJ software was used for the measurements of electron micrograph images.” left out, “1 PDI=sizedeviation(σ)/sizemean(μ)” left out

[3] = system: A549 lung carcinoma cells; assay: Confocal microscopy cell viability (DAPI-stained nuclei), A549; format: cell-based, human; details: for average cell viability, A549 / cell viability versus control, statistical significance, A549 / average viability decrease, A549: 10 μM nanoGUMBOS; for average cell viability, A549: no light activation, % of control; for cell viability versus control, statistical significance, A549: unpaired t-test; for nuclear morphology in fluorescence imaging: DAPI staining, in the dark, A549 and HEK293 imaged; for selectivity index (SI): cytotoxicity of A549 cells / cytotoxicity of HEK293 cells
Experimental: (§3) HEK293 or A549 Cells were collected from a T-25 culture flask following a standard cell culture harvesting procedure. A549 cells were diluted in cell culture media to a concentration of roughly 1,35,000 cells/mL. From this, the cells were loaded into individual chambers on an eight-chamber microscope slide, with a cell count per chamber of roughly 60,000 cells. This slide was then placed in an incubator (37 °C and 5.0% CO2 conditions) for 24 h before treating. When the treatment began, the original cell culture media was removed from the cells, and a compound/media mixture was added to each well. A control group of only cell culture media/DMSO was prepared and applied to one chamber in the slide, with the others consisting of treatment groups, following a serial dilution from 10 μM down to 0.15625 μM. After applying the treatment, the plate was returned to the incubator for 24 h. Following the incubation period, the cells were fixed using a 4% formaldehyde solution in the PBS buffer for 15 min at room temperature. After 15 min, the cells were washed three times with PBS. Then, to prepare the cells for staining, 0.5% Triton X-100 in PBS was applied to the cells for 15 min at room temperature. This was followed by three washes with PBS again. A 3% bovine serum albumin in PBS buffer was added to the cells for 60 min to block potential nonspecific binding sites for later 4′,6-diamidino-2-phenylindole (DAPI) staining. Another three washes with PBS were applied to the cells, and the cells were stained with a 1 μg/mL solution of DAPI and a mounting solution.
(§4) The imaging method employed fluorescence microscopy for nuclear staining visualization, allowing for an accurate quantification of viable cells based on intact nuclear morphology. ImageJ software was used to count the cell nuclei in each image. To avoid background signal, the software was set to only include nuclei of 20 μm^2 or larger. Viability quantification was performed by counting intact, properly stained nuclei and expressing results as a percentage of control values, with error bars representing standard error of the mean (SEM) from triplicate experiments. Statistical analysis was performed using unpaired t-tests with significance set at p < 0.05. Each nanoGUMBOS treatment was compared independently to control within the same cell lines, representing planned pairwise comparisons rather than exploratory testing. Given this, each nanoGUMBOS formulation that reduces cell viability will be assessed for an untreated cell line. Comparisons are made within discrete experimental groups for each cell line; thus, the unpaired t-test is employed. Dose–response curves and IC50 values were generated using a four-parameter logistic regression model implemented in Python (v3.12) within Jupyter Notebook (Anaconda distribution). Curve fitting was performed with the SciPy package (version 1.13), and figures were prepared using Matplotlib (v3.9). The rationale for selecting A549 (lung carcinoma) and HEK293 (noncancerous embryonic kidney) cell lines was based on their well-characterized nature and widespread use in cancer research, representing a relevant cancer model and a noncancerous control, respectively. […] Selectivity will be calculated using eq . 5 SI=cytotoxicityofA549cells/cytotoxicityofHEK293cells

[4] = system: HEK293 human embryonic kidney cells; assay: Confocal microscopy cell viability (DAPI-stained nuclei), HEK293; format: cell-based; details: 10 μM nanoGUMBOS; for cell viability versus control, statistical significance, HEK293: unpaired t-test
Experimental: as §3, §4

A549 cells = system: A549 cells; parameters: method as in numbers not shown in text; details: literature comparison, ref numbers not shown in text; cited from earlier work

| Compound | K o/w (octanol–water partition constant) [1] | DLS PDI [2] | DLS mean size [2] | DLS mean size ([2]; listed as [Na] 2 [RB]) | TEM mean size (S-TEM nanoparticle size) | TEM PDI (S-TEM nanoparticle size) | ζ-potential (DLS ζ-potential) | average cell viability, A549 ([3]; 24 h) | cell viability versus control, statistical significance, A549 [3] | nuclear morphology in fluorescence imaging ([3]; nanoGUMBOS, 24 h) | cell viability versus control, statistical significance, HEK293 [4] | selectivity index (A549 cells) | DLS mean size ([2]; listed as [TPP] 2 [RB]) | nanoparticle diameter (method not stated at the place) (S-TEM nanoparticle size; nanoGUMBOS by reprecipitation) | average viability decrease, A549 ([3]; 24 h) | selectivity index (SI) [3] | IC50 ([3]; nanoGUMBOS, 24 h, four-parameter logistic fit, read-out: IC50 against A549 cells) | cell viability decrease, HEK293 ([4]; 24 h) | cell viability, HEK293 ([4]; 24 h, % of control) |
| --- | --- | --- | --- | --- | --- | --- | --- | --- | --- | --- | --- | --- | --- | --- | --- | --- | --- | --- | --- |
| O=C(O)c1c(Cl)c(Cl)c(Cl)c(Cl)c1-c1c2cc(I)c(=O)c(I)c-2oc2c(I)c(O)c(I)cc12 [[Na]2[RB], Rose Bengal disodium salt, reference compound] | 4.5 | 0.58 | 230.9 nm | 230.90 ± 17.89 nm | 268.62 ± 74.02 nm | 0.28 | −18.4 mV | 86.7% | no statistically significant difference | minimal cellular changes | no statistically significant difference |  |  |  |  |  |  |  |  |
| tetrabutylphosphonium Rose Bengal [[TBP]2[RB]] |  |  |  |  |  |  |  |  | no statistically significant difference | minimal cellular changes | no statistically significant difference |  |  |  |  |  |  |  |  |
| N.N.[Cl][Pt][Cl] [cisplatin] |  |  |  |  |  |  |  |  |  |  |  | under 2 |  |  |  |  |  |  |  |
| O=C([O-])c1c(Cl)c(Cl)c(Cl)c(Cl)c1-c1c2cc(I)c(=O)c(I)c-2oc2c(I)c([O-])c(I)cc12.c1ccc([P+](c2ccccc2)(c2ccccc2)c2ccccc2)cc1.c1ccc([P+](c2ccccc2)(c2ccccc2)c2ccccc2)cc1 [[TPP]2[RB], tetraphenylphosphonium Rose Bengal] | 2.8 | 0.22 | 40.66 nm |  | 45.33 ± 11.53 nm | 0.24 | approximately −30 mV | below 50% | statistically significant reductions in cell viability; also recorded: statistically significant decrease in cell viability | altered nuclear morphology consistent with apoptotic processes | statistically significant reductions in cell viability; also recorded: statistically significant decrease in cell viability |  | 40.66 ± 3.33 nm | below 100 nm | 57.2% | 1.5 |  |  |  |
| COc1cccc2c1C(=O)c1c(O)c3c(c(O)c1C2=O)C[C@@](O)(C(=O)CO)C[C@@H]3O[C@H]1C[C@H](N)[C@H](O)[C@H](C)O1 [Doxorubicin] |  |  |  |  |  |  |  |  |  |  |  | 1.5 |  |  |  |  |  |  |  |
| CCCCCCCCCCCCn1cc[n+](C)c1.CCCCCCCCCCCCn1cc[n+](C)c1.O=C([O-])c1c(Cl)c(Cl)c(Cl)c(Cl)c1-c1c2cc(I)c(=O)c(I)c-2oc2c(I)c([O-])c(I)cc12 [[C12MIm]2[RB], 1-dodecyl-3-methylimidazolium Rose Bengal] | 2.5 | 0.37 | 59.87 ± 8.23 nm |  | 70.31 ± 16.43 nm | 0.23 | ≈ −30 mV |  | statistically significant reductions in cell viability; also recorded: statistically significant decrease in cell viability | altered nuclear morphology consistent with apoptotic processes | statistically significant reductions in cell viability; also recorded: statistically significant decrease in cell viability |  |  |  | 77.4% | 2.1 | 2160 nM and 2200 nM | 63.1% | 47.1% |
